Drawing on ChEMBL document CHEMBL5550108, “Exploiting high-energy hydration sites for the discovery of potent peptide aldehyde inhibitors of the SARS-CoV-2 main protease with cellular antiviral activity” (Bioorg Med Chem, 2024), this text covers EC50 and Selectivity ratio for 35 compounds.

In assay [1] the test system is SARS-CoV-2. Put plainly: Antiviral activity against SARS-CoV-2 USA-WA1/2020 infected in human HeLa cells harbouring ACE2 assessed as reduction in cytopathic effect pretreated with cells followed by viral infection and measured after 24 hrs by fluorescence based analysis. Conditions: Severe acute respiratory syndrome coronavirus 2, USA-WA1/2020, HeLa. The class given is functional, organism-based. Background: Damage to the host cells serves as the signal in cytopathic effect assays.

For assay [2], the system named is SARS-CoV-2. Nature of the assay: Selectivity ratio of EC50 for antiviral activity against SARS-CoV-2 USA-WA1/2020 infected in human HeLa cells harbouring ACE2 to IC50 for inhibition of C terminal 6 his tagged SARS-CoV-2 main protease expressed in Escherichia coli BL-21-Gold(DE3) cells. The assay is classed as functional.

The EC50 is the concentration at which the effect is half-maximal. For the compound `CC1CCC(CC(=O)N2C[C@H]3[C@@H]([C@H]2C(=O)N[C@H](C=O)C[C@@H]2CCNC2=O)C3(C)C)CC1` (some centres undefined), in the assay on SARS-CoV-2 [1], the EC50 was determined as 160 nM.
As for `CC1(C)[C@@H]2[C@@H](C(=O)N[C@H](C=O)C[C@@H]3CCNC3=O)N(C(=O)C3(c4ccccc4)CCCC3)C[C@@H]21`, the EC50 with SARS-CoV-2 [1] came out at 110 nM.
Still for that read-out and setting: the result for `Cc1cccc2[nH]c(C(=O)N3C[C@H]4[C@@H]([C@H]3C(=O)N[C@H](C=O)C[C@@H]3CCNC3=O)C4(C)C)cc12` reads 1400 nM; that for `C[C@@H](C(=O)N1C[C@H]2[C@@H]([C@H]1C(=O)N[C@H](C=O)C[C@@H]1CCNC1=O)C2(C)C)C1CCCCC1`, 300 nM.
Still for that read-out and setting: as for `C[C@H](C(=O)N1C[C@H]2[C@@H]([C@H]1C(=O)N[C@H](C=O)C[C@@H]1CCNC1=O)C2(C)C)C1CCCCC1`, the figure is 470 nM.
On the same count and under the same terms, the result for `CCc1cccc2[nH]c(C(=O)N3C[C@H]4[C@@H]([C@H]3C(=O)N[C@H](C=O)C[C@@H]3CCNC3=O)C4(C)C)cc12` reads 630 nM.
For `CC(C)c1ccc(F)c2[nH]c(C(=O)N3C[C@H]4[C@@H]([C@H]3C(=O)N[C@H](C=O)C[C@@H]3CCNC3=O)C4(C)C)cc12`, in the assay on SARS-CoV-2 [1], the EC50 amounted to 120 nM.
On the same count and under the same terms, the result for `CC1(C)[C@@H]2[C@@H](C(=O)N[C@H](C=O)C[C@@H]3CCNC3=O)N(C(=O)c3cc4c(C#N)cccc4[nH]3)C[C@@H]21` reads 8500 nM.
On the same count and under the same terms, the result for `CC1(C)[C@@H]2[C@@H](C(=O)N[C@H](C=O)C[C@@H]3CCNC3=O)N(C(=O)c3cc4cccc(Cl)c4[nH]3)C[C@@H]21` reads 300 nM; that for `Cc1cccc([C@@H](C)C(=O)N2C[C@H]3[C@@H]([C@H]2C(=O)N[C@H](C=O)C[C@@H]2CCNC2=O)C3(C)C)c1`, 170 nM.
Turning to `Cc1cccc2cc(C(=O)N3C[C@H]4[C@@H]([C@H]3C(=O)N[C@H](C=O)C[C@@H]3CCNC3=O)C4(C)C)[nH]c12`, the EC50 with SARS-CoV-2 [1] was determined as 1300 nM.
`CC1(C)C[C@@H](C(=O)N[C@H](C=O)C[C@@H]2CCNC2=O)N(C(=O)c2cc3ccccc3[nH]2)C1`: in the assay on SARS-CoV-2 [1], the EC50 stood at 7100 nM. In the assay on SARS-CoV-2 [2], the Selectivity ratio came out at 30.
In the case of `CC1(C)[C@@H]2[C@@H](C(=O)N[C@H](C=O)C[C@@H]3CCNC3=O)N(C(=O)C3(c4cccc(Cl)c4)CC3)C[C@@H]21`, in the assay with SARS-CoV-2 [1], the EC50 was 90 nM.
Same read-out and setting: as for `CC(C)Oc1cccc2[nH]c(C(=O)N3C[C@H]4[C@@H]([C@H]3C(=O)N[C@H](C=O)C[C@@H]3CCNC3=O)C4(C)C)cc12`, the figure is 250 nM; as for `CC1(C)[C@@H]2[C@@H](C(=O)N[C@H](C=O)C[C@@H]3CCNC3=O)N(C(=O)C3(c4ccccc4)CC3)C[C@@H]21`, 196 nM.
Regarding `CC1(C)[C@@H]2[C@@H](C(=O)N[C@H](C=O)C[C@@H]3CCNC3=O)N(C(=O)c3cc4cccc(C#N)c4[nH]3)C[C@@H]21`, in the assay with SARS-CoV-2 [1], the EC50 came out at 410 nM.
Turning to `CC(C)(C)CCC(=O)N1C[C@H]2[C@@H]([C@H]1C(=O)N[C@H](C=O)C[C@@H]1CCNC1=O)C2(C)C`, the EC50 with SARS-CoV-2 [1] stood at 690 nM.
Same read-out and setting: the result for `CC1(C)[C@@H]2[C@@H](C(=O)N[C@H](C=O)C[C@@H]3CCNC3=O)N(C(=O)C3(O)CCCCC3)C[C@@H]21` reads 2200 nM.
The same measure, in the same setting: as for `CC(C)c1ccc(Cl)c2[nH]c(C(=O)N3C[C@H]4[C@@H]([C@H]3C(=O)N[C@H](C=O)C[C@@H]3CCNC3=O)C4(C)C)cc12`, the figure is 270 nM.
In the case of `CC1(C)[C@@H]2[C@@H](C(=O)N[C@H](C=O)C[C@@H]3CCNC3=O)N(C(=O)Cc3ccccc3)C[C@@H]21`, in the assay with SARS-CoV-2 [1], the EC50 was 530 nM.
Consider `CC(C)(C)CC(=O)N1C[C@H]2[C@@H]([C@H]1C(=O)N[C@H](C=O)C[C@@H]1CCNC1=O)C2(C)C`, for which the EC50 with SARS-CoV-2 [1] turned out to be 1100 nM.
Still for that read-out and setting: as for `CC1(C)[C@@H]2[C@@H](C(=O)N[C@H](C=O)C[C@@H]3CCNC3=O)N(C(=O)c3cc4c(F)cccc4[nH]3)C[C@@H]21`, the figure is 1800 nM; as for `CC1(C)[C@@H]2[C@@H](C(=O)N[C@H](C=O)C[C@@H]3CCNC3=O)N(C(=O)c3cc4cccc(F)c4[nH]3)C[C@@H]21`, 720 nM.
For the compound `CC(C)c1cccc2[nH]c(C(=O)N3C[C@H]4[C@@H]([C@H]3C(=O)N[C@H](C=O)C[C@@H]3CCNC3=O)C4(C)C)cc12`, in the assay on SARS-CoV-2 [1], the concentration giving a half-maximal response (EC50) came out at 370 nM.
Take `O=C[C@H](C[C@@H]1CCNC1=O)NC(=O)[C@@H]1CC2(CC2)CN1C(=O)c1cc2ccccc2[nH]1`: the EC50 in the assay with SARS-CoV-2 [1] was determined as 9200 nM. Besides, in the assay on SARS-CoV-2 [2], the Selectivity ratio is 30.
Take `CC1(C)[C@@H]2[C@@H](C(=O)N[C@H](C=O)C[C@@H]3CCNC3=O)N(C(=O)c3cc4cc(F)ccc4[nH]3)C[C@@H]21`: the EC50 in the assay with SARS-CoV-2 [1] came to 4000 nM.
Still for that read-out and setting: as for `CC1(C)[C@@H]2[C@@H](C(=O)N[C@H](C=O)C[C@@H]3CCNC3=O)N(C(=O)c3cc4ccc(F)cc4[nH]3)C[C@@H]21`, the figure is 1800 nM.
Still for that read-out and setting: as for `C[C@@H](C(=O)N1C[C@H]2[C@@H]([C@H]1C(=O)N[C@H](C=O)C[C@@H]1CCNC1=O)C2(C)C)c1ccccc1`, the figure is 300 nM.
On to `O=C[C@H](C[C@@H]1CCNC1=O)NC(=O)[C@@H]1C[C@@H](C2CCCCC2)CN1C(=O)c1cc2ccccc2[nH]1`, for which the EC50 in the assay with SARS-CoV-2 [1] came out at 770 nM. For the same compound, in the assay on SARS-CoV-2 [2], the Selectivity ratio was 30.
Take `COc1cccc2cc(C(=O)N3C[C@H]4[C@@H]([C@H]3C(=O)N[C@H](C=O)C[C@@H]3CCNC3=O)C4(C)C)[nH]c12`: in the assay on SARS-CoV-2 [1], the EC50 was 1300 nM.
Take `CC1(C)[C@@H]2[C@@H](C(=O)N[C@H](C=O)C[C@@H]3CCNC3=O)N(C(=O)CC3CCCCC3)C[C@@H]21`: in the assay with SARS-CoV-2 [1], the EC50 came to 340 nM.
In the case of `COc1cccc2[nH]c(C(=O)N3C[C@H]4[C@@H]([C@H]3C(=O)N[C@H](C=O)C[C@@H]3CCNC3=O)C4(C)C)cc12`, the EC50 in the assay with SARS-CoV-2 [1] came to 8800 nM.
The same measure, in the same setting: as for `CC(C)(C(=O)N1C[C@H]2[C@@H]([C@H]1C(=O)N[C@H](C=O)C[C@@H]1CCNC1=O)C2(C)C)c1ccccc1`, the figure is 343 nM.
Same read-out and setting: as for `CC1(C)[C@@H]2[C@@H](C(=O)N[C@H](C=O)C[C@@H]3CCNC3=O)N(C(=O)c3cc4cccc(C(F)(F)F)c4[nH]3)C[C@@H]21`, the figure is 240 nM.
Regarding `CC1(C)[C@@H]2[C@@H](C(=O)N[C@H](C=O)C[C@@H]3CCNC3=O)N(C(=O)c3cc4ccccc4[nH]3)C[C@@H]21`, in the assay on SARS-CoV-2 [1], the EC50 came out at 2500 nM. Further, the Selectivity ratio with SARS-CoV-2 [2] is on record as 30.
